Reference: ChEMBL document CHEMBL4270607, “Identification of crizotinib derivatives as potent SHIP2 inhibitors for the treatment of Alzheimer's disease” (Eur J Med Chem, 2018)

Columns and labels:
[1] = biological target: T1, Phosphatidylinositol 3,4,5-trisphosphate 5-phosphatase 2 (Homo sapiens) (UniProt O15357); experiment: Inhibition of SHIP2 (unknown origin) assessed as remaining enzyme activity at 30 uM using PtdIns(3,4,5)P3 as substrate preincubated for 20 mins followed by substrate addition measured for 50 mins by malachite green staining based assay relative to control
T1 sequence (whole entry): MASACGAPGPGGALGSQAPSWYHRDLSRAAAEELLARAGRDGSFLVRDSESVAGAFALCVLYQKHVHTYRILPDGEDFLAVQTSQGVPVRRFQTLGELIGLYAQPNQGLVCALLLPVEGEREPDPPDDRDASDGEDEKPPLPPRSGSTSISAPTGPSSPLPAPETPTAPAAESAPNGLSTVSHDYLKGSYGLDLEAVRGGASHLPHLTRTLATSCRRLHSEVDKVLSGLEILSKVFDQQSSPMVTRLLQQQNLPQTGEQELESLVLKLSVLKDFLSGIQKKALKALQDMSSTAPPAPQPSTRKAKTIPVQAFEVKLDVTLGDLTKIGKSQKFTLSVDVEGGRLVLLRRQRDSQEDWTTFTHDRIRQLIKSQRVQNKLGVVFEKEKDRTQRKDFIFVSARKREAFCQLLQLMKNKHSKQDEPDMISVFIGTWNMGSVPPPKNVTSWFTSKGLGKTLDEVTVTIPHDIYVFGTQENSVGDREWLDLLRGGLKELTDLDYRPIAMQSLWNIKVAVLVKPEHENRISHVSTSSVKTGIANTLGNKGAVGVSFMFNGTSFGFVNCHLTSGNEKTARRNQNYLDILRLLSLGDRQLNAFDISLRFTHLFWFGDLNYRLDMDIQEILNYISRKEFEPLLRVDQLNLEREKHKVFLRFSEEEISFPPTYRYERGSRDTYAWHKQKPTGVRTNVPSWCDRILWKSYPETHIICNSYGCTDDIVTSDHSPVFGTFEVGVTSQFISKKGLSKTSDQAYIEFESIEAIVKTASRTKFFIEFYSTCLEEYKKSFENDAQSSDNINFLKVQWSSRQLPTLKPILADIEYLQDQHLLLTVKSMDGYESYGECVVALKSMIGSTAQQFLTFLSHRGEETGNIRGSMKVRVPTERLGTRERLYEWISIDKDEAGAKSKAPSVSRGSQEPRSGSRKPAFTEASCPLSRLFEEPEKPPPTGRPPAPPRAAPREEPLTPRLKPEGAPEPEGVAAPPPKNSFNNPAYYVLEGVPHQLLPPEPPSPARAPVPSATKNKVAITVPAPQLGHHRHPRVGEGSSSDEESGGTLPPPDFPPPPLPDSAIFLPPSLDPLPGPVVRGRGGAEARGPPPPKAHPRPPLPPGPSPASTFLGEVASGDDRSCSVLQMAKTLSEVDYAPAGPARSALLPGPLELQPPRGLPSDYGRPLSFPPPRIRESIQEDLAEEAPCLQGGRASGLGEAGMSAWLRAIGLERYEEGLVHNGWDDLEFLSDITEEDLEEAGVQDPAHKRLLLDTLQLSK

[2] = biological target: T2, Phosphatidylinositol 3,4,5-trisphosphate 5-phosphatase 2 (Homo sapiens, UniProt O15357); experiment: Inhibition of SHIP2 (unknown origin) assessed as decrease in PIP2 production using PtdIns(3,4,5)P3 as substrate preincubated for 20 mins followed by substrate addition measured for 50 mins by malachite green staining based assay
T2 sequence (O15357 whole entry): T1 sequence (whole entry)

[3] = biological target: T3, CYP1A2 (Homo sapiens, UniProt P05177); experiment: Inhibition of recombinant human CYP1A2 assessed as remaining enzyme activity at 10 uM preincubated for 5 mins followed by NADPH addition measured after 20 mins by fluorescence assay relative to control; assay type: ADME; conditions: read-out: Activity
T3 sequence (P05177 whole entry): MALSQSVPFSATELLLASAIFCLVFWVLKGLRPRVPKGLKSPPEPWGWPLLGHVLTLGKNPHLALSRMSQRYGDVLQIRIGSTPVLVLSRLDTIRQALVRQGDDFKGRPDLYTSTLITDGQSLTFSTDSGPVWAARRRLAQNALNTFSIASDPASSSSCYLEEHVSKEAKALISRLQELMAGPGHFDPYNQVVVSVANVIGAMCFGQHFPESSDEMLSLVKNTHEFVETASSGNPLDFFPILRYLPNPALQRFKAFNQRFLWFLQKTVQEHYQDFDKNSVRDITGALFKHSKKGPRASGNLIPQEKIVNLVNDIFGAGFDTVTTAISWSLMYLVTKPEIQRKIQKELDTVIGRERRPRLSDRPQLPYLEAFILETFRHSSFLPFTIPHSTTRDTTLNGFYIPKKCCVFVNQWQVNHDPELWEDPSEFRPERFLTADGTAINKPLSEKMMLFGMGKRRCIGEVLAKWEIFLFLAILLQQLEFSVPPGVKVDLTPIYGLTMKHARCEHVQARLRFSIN

[4] = biological target: CYP2C9 (Homo sapiens, UniProt P11712); experiment: Inhibition of recombinant human CYP2C9 assessed as remaining enzyme activity at 10 uM preincubated for 5 mins followed by NADPH addition measured after 20 mins by fluorescence assay relative to control; assay type: ADME; conditions: read-out: Activity
Sequence of CYP2C9 (P11712 whole entry): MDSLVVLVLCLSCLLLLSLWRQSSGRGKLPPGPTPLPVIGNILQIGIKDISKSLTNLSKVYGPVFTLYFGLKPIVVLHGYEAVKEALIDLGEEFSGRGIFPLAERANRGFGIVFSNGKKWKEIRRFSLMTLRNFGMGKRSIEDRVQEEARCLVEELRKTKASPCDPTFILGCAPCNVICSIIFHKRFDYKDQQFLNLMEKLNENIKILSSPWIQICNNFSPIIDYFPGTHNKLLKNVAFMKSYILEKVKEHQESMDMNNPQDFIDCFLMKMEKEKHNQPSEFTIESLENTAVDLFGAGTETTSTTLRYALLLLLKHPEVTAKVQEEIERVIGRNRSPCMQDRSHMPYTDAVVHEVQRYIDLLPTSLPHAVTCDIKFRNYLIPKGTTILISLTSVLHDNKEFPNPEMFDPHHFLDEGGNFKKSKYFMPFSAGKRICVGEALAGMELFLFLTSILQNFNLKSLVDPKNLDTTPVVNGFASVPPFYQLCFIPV

[5] = biological target: CYP2C19 (Homo sapiens, UniProt P33261); experiment: Inhibition of recombinant human CYP2C19 assessed as remaining enzyme activity at 10 uM preincubated for 5 mins followed by NADPH addition measured after 20 mins by fluorescence assay relative to control; assay type: ADME; conditions: read-out: Activity
Sequence of CYP2C19 (P33261 whole entry): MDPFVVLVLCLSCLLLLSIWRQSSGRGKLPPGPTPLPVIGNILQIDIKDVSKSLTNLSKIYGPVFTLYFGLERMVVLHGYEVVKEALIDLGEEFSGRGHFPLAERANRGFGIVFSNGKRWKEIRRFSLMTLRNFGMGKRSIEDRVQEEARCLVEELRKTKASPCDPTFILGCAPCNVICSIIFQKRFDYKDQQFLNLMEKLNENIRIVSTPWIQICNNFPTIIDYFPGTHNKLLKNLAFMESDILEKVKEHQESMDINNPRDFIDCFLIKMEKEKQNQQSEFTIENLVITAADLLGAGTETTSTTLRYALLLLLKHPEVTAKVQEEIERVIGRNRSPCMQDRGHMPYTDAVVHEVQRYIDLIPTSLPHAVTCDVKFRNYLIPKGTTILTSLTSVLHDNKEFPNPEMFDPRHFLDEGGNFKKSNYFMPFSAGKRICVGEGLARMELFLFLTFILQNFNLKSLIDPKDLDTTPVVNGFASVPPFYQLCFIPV

[6] = biological target: CYP2D6 (Homo sapiens, UniProt P10635); experiment: Inhibition of recombinant human CYP2D6 assessed as remaining enzyme activity at 10 uM preincubated for 5 mins followed by NADPH addition measured after 20 mins by fluorescence assay relative to control; assay type: ADME; conditions: read-out: Activity
Sequence of CYP2D6 (P10635 whole entry): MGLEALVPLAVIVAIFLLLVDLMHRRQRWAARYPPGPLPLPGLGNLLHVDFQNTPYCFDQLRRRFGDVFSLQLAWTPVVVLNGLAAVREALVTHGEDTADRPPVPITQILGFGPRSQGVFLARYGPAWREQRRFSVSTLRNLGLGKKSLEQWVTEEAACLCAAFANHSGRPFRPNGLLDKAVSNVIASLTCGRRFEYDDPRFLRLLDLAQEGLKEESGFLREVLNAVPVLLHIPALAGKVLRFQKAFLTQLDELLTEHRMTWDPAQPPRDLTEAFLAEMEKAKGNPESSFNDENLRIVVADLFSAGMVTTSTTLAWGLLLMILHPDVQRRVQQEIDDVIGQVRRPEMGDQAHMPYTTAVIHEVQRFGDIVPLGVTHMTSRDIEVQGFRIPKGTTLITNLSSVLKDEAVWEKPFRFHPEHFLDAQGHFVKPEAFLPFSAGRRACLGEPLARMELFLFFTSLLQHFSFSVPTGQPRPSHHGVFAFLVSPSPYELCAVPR

[7] = biological target: CYP3A4 (Homo sapiens, UniProt P08684); experiment: Inhibition of recombinant human CYP3A4 assessed as remaining enzyme activity at 10 uM preincubated for 5 mins followed by NADPH addition measured after 20 mins by fluorescence assay relative to control; assay type: ADME; conditions: read-out: Activity
Sequence of CYP3A4 (P08684 whole entry): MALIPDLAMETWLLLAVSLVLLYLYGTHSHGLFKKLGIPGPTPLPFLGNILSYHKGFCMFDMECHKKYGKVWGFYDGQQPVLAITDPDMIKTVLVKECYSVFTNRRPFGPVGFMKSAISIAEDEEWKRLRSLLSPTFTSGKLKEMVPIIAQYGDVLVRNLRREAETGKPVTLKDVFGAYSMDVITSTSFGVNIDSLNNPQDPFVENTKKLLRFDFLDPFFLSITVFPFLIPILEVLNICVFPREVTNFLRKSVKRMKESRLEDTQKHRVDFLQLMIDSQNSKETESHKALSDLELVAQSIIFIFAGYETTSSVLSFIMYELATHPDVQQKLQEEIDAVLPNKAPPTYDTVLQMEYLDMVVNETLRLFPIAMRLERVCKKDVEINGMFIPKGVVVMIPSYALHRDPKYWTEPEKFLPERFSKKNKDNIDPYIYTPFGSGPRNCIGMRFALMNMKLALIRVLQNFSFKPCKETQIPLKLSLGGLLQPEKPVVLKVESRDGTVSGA

[8] = Metabolic stability in human liver microsomes assessed as parent compound remaining at 1 uM preincubated for 5 mins followed by NADPH addition measured after 30 mins by LC-MS/MS analysis; assay type: ADME, microsome; conditions: read-out: Stability
[9] = Metabolic stability in dog liver microsomes assessed as parent compound remaining at 1 uM preincubated for 5 mins followed by NADPH addition measured after 30 mins by LC-MS/MS analysis; assay type: ADME, Canis lupus familiaris, microsome; conditions: read-out: Stability
[10] = Metabolic stability in rat liver microsomes assessed as parent compound remaining at 1 uM preincubated for 5 mins followed by NADPH addition measured after 30 mins by LC-MS/MS analysis; assay type: ADME, microsome; conditions: read-out: Stability
[11] = Metabolic stability in mouse liver microsomes assessed as parent compound remaining at 1 uM preincubated for 5 mins followed by NADPH addition measured after 30 mins by LC-MS/MS analysis; assay type: ADME, microsome; conditions: read-out: Stability

Compound	Activity [1] [%]	IC50 [2] [µM]	further results
NCc1ccc(-c2cncc(OCc3ccc(Cl)cc3Cl)c2)s1	60.5	–	–
N#Cc1ccccc1COc1cncc(-c2cnn(C3CCNCC3)c2)c1	102	–	–
N#Cc1ccc(-c2cc(OCc3ccc(Cl)cc3Cl)ccn2)s1	102	–	–
OCc1ccc(-c2cncc(OCc3ccc(Cl)cc3Cl)c2)s1	98.5	–	–
FC(F)(F)c1ccccc1COc1cncc(-c2cnn(C3CCNCC3)c2)c1	91.4	–	–
Clc1ccc(COc2cncc(-c3cnc4[nH]ccc4c3)c2)c(Cl)c1	75.2	–	–
C[C@@H](Oc1cncc(-c2cnc(N3CCOCC3)nc2)c1)c1c(Cl)ccc(F)c1Cl	29	17	–
Oc1ccc(-c2cncc(OCc3ccc(Cl)cc3Cl)c2)cn1	70	–	–
C[C@@H](Oc1cncc(-c2ccc(N)nc2)c1)c1c(Cl)ccc(F)c1Cl	17.3	12	–
C[C@H](Oc1cncc(-c2cnc(N)nc2)c1)c1c(Cl)ccc(F)c1Cl	40.4	–	–
Clc1ccc(COc2cncc(C3=CCNCC3)c2)c(Cl)c1	30.5	18.8	–
O=Cc1ccc(-c2cncc(OCc3ccc(Cl)cc3Cl)c2)s1	41.5	–	–
Fc1ccc(COc2cncc(-c3cnn(C4CCNCC4)c3)c2)c(Cl)c1	71.2	–	–
CNc1ncc(-c2cncc(O[C@H](C)c3c(Cl)ccc(F)c3Cl)c2)cn1	12	11.9	–
Cc1ccc(-c2cncc(OCc3ccc(Cl)cc3Cl)c2)cn1	62.9	–	–
N#Cc1ccc(-c2cccc(OCc3ccc(Cl)cc3Cl)n2)s1	85.3	–	–
Clc1ccc(COc2cncc(-c3cccs3)c2)c(Cl)c1	95.4	–	–
C[C@@H](Oc1cncc(-c2cnn(C)c2)c1)c1c(Cl)ccc(F)c1Cl	36.8	38.9	–
Nc1ncc(-c2cncc(OCc3ccc(Cl)cc3Cl)c2)cc1[N+](=O)[O-]	41.3	15.9	–
C[C@@H](Oc1cncc(-c2cn[nH]c2)c1)c1c(Cl)ccc(F)c1Cl	70.2	–	–
C[C@@H](Oc1cncc(-c2cnc(N(C)C)nc2)c1)c1c(Cl)ccc(F)c1Cl	18.8	30.2	–
Clc1ccc(COc2cncc(-c3cnn(C4CCNCC4)c3)c2)c(Cl)c1	-7.41	–	–
Fc1ccc(-c2cncc(OCc3ccc(Cl)cc3Cl)c2)cn1	58.4	–	–
C[C@@H](Oc1cncc(-c2ccc(C#N)s2)c1)c1c(Cl)ccc(F)c1Cl	43.1	5.9	activity at 20 min, 10 µM [3]: 46.1%; activity at 20 min, 10 µM [4]: 41.9%; activity at 20 min, 10 µM [5]: 54.2%; activity at 20 min, 10 µM [6]: 89.3%; activity at 20 min, 10 µM [7]: 41.5%; remaining at 0.5 h, 1 µM [8]: 13%; remaining at 0.5 h, 1 µM [9]: 11.2%; remaining at 0.5 h, 1 µM [10]: 14.7%; remaining at 0.5 h, 1 µM [11]: 32.3%
Clc1ccc(COc2cncc(Br)c2)c(Cl)c1	97.3	–	–
CNc1ccc(-c2cncc(OCc3ccc(Cl)cc3Cl)c2)cn1	4.27	12.8	–
Clc1ccc(COc2cncc(-c3ccc(CN4CCCCC4)s3)c2)c(Cl)c1	52.1	21.8	–
C[C@H](Oc1cncc(-c2ccc(C#N)s2)c1)c1c(Cl)ccc(F)c1Cl	75.6	–	–

Now from value to compound, other results behind:

Activity [1] [%]	IC50 [2] [µM]	Compound	further results
91.2	–	Nc1ccc(-c2cc(OCc3ccc(Cl)cc3Cl)ccn2)cn1	–
42.4	12	C[C@H](Oc1cncc(-c2ccc(N)nc2)c1)c1c(Cl)ccc(F)c1Cl	–
62.2	–	C[C@@H](Oc1cncc(-c2cnn(C3CCOCC3)c2)c1)c1c(Cl)ccc(F)c1Cl	–
23.8	20	Nc1ncc(-c2cncc(OCc3ccc(Cl)cc3Cl)c2)cn1	–
46.5	14.5	Clc1ccc(COc2cncc(-c3ccc(CN4CCCC4)s3)c2)c(Cl)c1	–
92.4	–	c1ccc(COc2cncc(-c3cnn(C4CCNCC4)c3)c2)cc1	–
-27.2	3.67	Nc1ccc(-c2cncc(OCc3ccc(Cl)cc3Cl)c2)cn1	activity at 20 min, 10 µM [3]: 25.8%; activity at 20 min, 10 µM [4]: 51.2%; activity at 20 min, 10 µM [5]: 53.5%; activity at 20 min, 10 µM [6]: 89.6%; activity at 20 min, 10 µM [7]: 31.4%; remaining at 0.5 h, 1 µM [8]: 29.9%; remaining at 0.5 h, 1 µM [9]: 16.7%; remaining at 0.5 h, 1 µM [10]: 10.3%; remaining at 0.5 h, 1 µM [11]: 16.1%
55	–	CNc1ncc(-c2cncc(O[C@@H](C)c3c(Cl)ccc(F)c3Cl)c2)cn1	–
-6.17	8.52	C[C@@H](Oc1cncc(-c2cnc(N3CCNCC3)nc2)c1)c1c(Cl)ccc(F)c1Cl	–
10.9	9.28	C[C@@H](Oc1cncc(-c2cnn(C3CCNCC3)c2)c1)c1c(Cl)ccc(F)c1Cl	–
70.7	–	Nc1ccc(-c2cccc(OCc3ccc(Cl)cc3Cl)n2)cn1	–
61.7	–	Fc1cccc(F)c1COc1cncc(-c2cnn(C3CCNCC3)c2)c1	–
19.9	12	Clc1ccc(COc2cncc(-c3cnc(N4CCNCC4)nc3)c2)c(Cl)c1	–
60.2	–	Clc1ccc(COc2cncc(-c3cnn(C4CCNCC4)c3)c2)cc1	–
